Assay results as given in patent publication US20030130203A1, “Medicament for combating respiratory depression” (priority 2000, published 2003).

Tested on: awake male Sprague Dawley rats
Test: Measurement of respiratory rate on the awake rat
Format: in vivo
Conditions: i.v., measured immediately and up to 15 min
Method: Measurement of Respiratory Rate on the Awake Rat
To study the respiratory rate, awake male Sprague Dawley rats (Janvier, France) weighing 190 to 315 g were immobilized in Plexiglas tubes. For intravenous administration of the medicament solutions, the rats were each provided with a catheter in the caudal vein. The respiratory rate of the rats was measured via a water-filled balloon catheter located laterally between the rat and the Plexiglas tube. The balloon catheter was connected to a pressure sensor and a high-speed chart recorder (Gould, Dietzenbach).
After an equilibration period of 30 minutes, a baseline value for the respiratory rate was determined. The appropriate active ingredient solution was then administered intravenously and the respiratory rate was measured immediately and after 1, 2, 5, 10 and 15 minutes. Each rat received a single administration per day.

Row | Structure (SMILES) | respiratory rate (0.215 mg/kg montirelin together with 10 mg/kg morphine in 0.9% saline) | respiratory rate (10 mg/kg morphine only in 0.9% saline)
1 | C[C@H]1SC[C@@H](C(=O)N[C@H](Cc2c[nH]cn2)C(=O)N2CCC[C@H]2C(N)=O)NC1=O [Example 1, montirelin] | no decrease in respiratory rate | –
2 | CN1CC[C@]23c4c5ccc(O)c4O[C@H]2[C@@H](O)C=C[C@H]3[C@H]1C5 [Comparative Example 1, morphine] | – | marked decrease in respiratory rate
